# Measurements taken from patent US7718668B2, “Salts of 6-heterocycle substituted hexahydrophenanthridine derivatives” (Nycomed GmbH, priority 2005, dated 2010).
# Counter-ions that a name gives are not always drawn.
row,Compound,melting point
1,"CCOc1cc2c(cc1OC)C(c1cnc(N(C)C)nc1)=N[C@@H]1CC[C@@H](O)C[C@H]21 [compound 13, (2R,4aR,10bR)-6-(2-Dimethylamino-pyrimidin-5-yl)-9-ethoxy-8-methoxy-1,2,3,4,4a, 10b-hexahydro-phenanthridin-2-ol]",112 °C
2,"CCOc1cc2c(cc1OC)C(c1cnc(OC)cc1OC)=N[C@@H]1CC[C@@H](O)C[C@H]21 (as salt: fumarate) [compound 12, (2R,4aR,10bR)-6-(4,6-Dimethoxy-pyridin-3-yl)-9-ethoxy-8-methoxy-1,2,3,4,4a, 10b-hexahydro-phenanthridin-2-ol]",194 °C
3,"CCOc1cc2c(cc1OC)C(c1ccc(OC)nc1OC)=N[C@@H]1CC[C@@H](O)C[C@H]21 (as salt: hydrochloride) [compound 8, (2R,4aR,10bR)-6-(2,6-Dimethoxy-pyridin-3-yl)-9-ethoxy-8-methoxy-1,2,3,4,4a, 10b-hexahydro-phenanthridin-2-ol]",164 °C
4,"CCOc1cc2c(cc1OC)C(c1cnc(N(C)C)nc1OC)=N[C@@H]1CC[C@@H](O)C[C@H]21 (as salt: tartrate) [compound 11, (2R,4aR,10bR)-6-(2-Dimethylamino-4-methoxy-pyrimidin-5-yl)-9-ethoxy-8-methoxy-1,2,3,4,4a, 10b-hexahydro-phenanthridin-2-ol]",249 °C
5,"CCOc1cc2c(cc1OC)C(c1ccc(OC)nc1)=N[C@@H]1CC[C@@H](O)C[C@H]21 (as salt: fumarate) [compound 10, (2R,4aR,10bR)-9-Ethoxy-8-methoxy-6-(6-methoxy-pyridin-3-yl)-1,2,3,4,4a, 10b-hexahydro-phenanthridin-2-ol]",173 °C
6,"CCOc1cc2c(cc1OC)C(c1ccc(=O)n(C)c1)=N[C@@H]1CC[C@@H](O)C[C@H]21 (as salt: fumarate) [compound 9, 5-((2R,4aR,10bR)-9-Ethoxy-2-hydroxy-8-methoxy-1,2,3,4,4a, 10b-hexahydro-phenanthridin-6-yl)-1-methyl-1H-pyridin-2-one]",156 °C
7,"CCOc1cc2c(cc1OC)C(c1cnc(OC)nc1)=N[C@@H]1CC[C@@H](O)C[C@H]21 [compound 4, (2R,4aR,10bR)-9-Ethoxy-8-methoxy-6-(2-methoxy-pyrimidin-5-yl)-1,2,3,4,4a, 10b-hexahydro-phenanthridin-2-ol]",124 °C
8,"CCOc1cc2c(cc1OC)C(c1cnc(N(C)C)nc1)=N[C@@H]1CC[C@@H](O)C[C@H]21 (as salt: tartrate) [compound 13, (2R,4aR,10bR)-6-(2-Dimethylamino-pyrimidin-5-yl)-9-ethoxy-8-methoxy-1,2,3,4,4a, 10b-hexahydro-phenanthridin-2-ol]",206 °C

# More lines, now with the values ahead:
row,melting point,Compound
1,205 °C,"CCOc1cc2c(cc1OC)C(c1ccc(=O)n(C)c1)=N[C@@H]1CC[C@@H](O)C[C@H]21 (as salt: tartrate) [compound 9, 5-((2R,4aR,10bR)-9-Ethoxy-2-hydroxy-8-methoxy-1,2,3,4,4a, 10b-hexahydro-phenanthridin-6-yl)-1-methyl-1H-pyridin-2-one]"
2,124 °C,"CCOc1cc2c(cc1OC)C(c1cnc(N(C)C)nc1OC)=N[C@@H]1CC[C@@H](O)C[C@H]21 [compound 11, (2R,4aR,10bR)-6-(2-Dimethylamino-4-methoxy-pyrimidin-5-yl)-9-ethoxy-8-methoxy-1,2,3,4,4a, 10b-hexahydro-phenanthridin-2-ol]"
3,123 °C,"CCOc1cc2c(cc1OC)C(c1cnc(N(C)C)nc1OC)=N[C@@H]1CC[C@@H](O)C[C@H]21 (as salt: fumarate) [compound 11, (2R,4aR,10bR)-6-(2-Dimethylamino-4-methoxy-pyrimidin-5-yl)-9-ethoxy-8-methoxy-1,2,3,4,4a, 10b-hexahydro-phenanthridin-2-ol]"
4,218 °C,"CCOc1cc2c(cc1OC)C(c1ccc(OC)nc1OC)=N[C@@H]1CC[C@@H](O)C[C@H]21 (as salt: tosylate) [compound 8, (2R,4aR,10bR)-6-(2,6-Dimethoxy-pyridin-3-yl)-9-ethoxy-8-methoxy-1,2,3,4,4a, 10b-hexahydro-phenanthridin-2-ol]"
5,210 °C,"CCOc1cc2c(cc1OC)C(c1cnc(N(C)C)nc1)=N[C@@H]1CC[C@@H](O)C[C@H]21 (as salt: fumarate) [compound 13, (2R,4aR,10bR)-6-(2-Dimethylamino-pyrimidin-5-yl)-9-ethoxy-8-methoxy-1,2,3,4,4a, 10b-hexahydro-phenanthridin-2-ol]"
6,147 °C,"CCOc1cc2c(cc1OC)C(c1ccc(=O)n(C)c1)=N[C@@H]1CC[C@@H](O)C[C@H]21 [compound 9, 5-((2R,4aR,10bR)-9-Ethoxy-2-hydroxy-8-methoxy-1,2,3,4,4a, 10b-hexahydro-phenanthridin-6-yl)-1-methyl-1H-pyridin-2-one]"
7,170 °C,"CCOc1cc2c(cc1OC)C(c1ccc(-n3cccn3)nc1)=N[C@@H]1CC[C@@H](O)C[C@H]21 (as salt: fumarate) [compound 3, (2R,4aR,10bR)-9-Ethoxy-8-methoxy-6-(6-pyrazol-1-yl-pyridin-3-yl)-1,2,3,4,4a, 10b-hexahydro-phenanthridin-2-ol]"
8,193 °C,"CCOc1cc2c(cc1OC)C(c1ccc(OC)nc1OC)=N[C@@H]1CC[C@@H](O)C[C@H]21 (as salt: mesylate) [compound 8, (2R,4aR,10bR)-6-(2,6-Dimethoxy-pyridin-3-yl)-9-ethoxy-8-methoxy-1,2,3,4,4a, 10b-hexahydro-phenanthridin-2-ol]"
9,163 °C,"CCOc1cc2c(cc1OC)C(c1ccc(OC)nc1OC)=N[C@@H]1CC[C@@H](O)C[C@H]21 (as salt: hydrobromid) [compound 8, (2R,4aR,10bR)-6-(2,6-Dimethoxy-pyridin-3-yl)-9-ethoxy-8-methoxy-1,2,3,4,4a, 10b-hexahydro-phenanthridin-2-ol]"
